Data taken from patent publication US20080319042A1, “Compositions and methods for treatment of liver disease” (priority 2007, published 2008).
Several values for one entry are separate records, joined by “and”; a condition that tells them apart may be missing. Equal values may be shown once.

Assays:
HCV = settings: cited from earlier work
[1] = test system: hepatitis B surface antigen (HBsAg) production; assay: Anti-HBSAg Assay (Procedure A); assay type: cell-based, hepatitis B virus; settings: 50 μg/ml
Procedure: (§1) The HBV-producing human hepatoblastoma cell line, Hep G2.2.15 was maintained in DMEM supplemented with 10% fetal bovine serum (FBS), 2 mM glutamine, 100 units/ml penicillin, 100 μg/ml streptomycin and 380 μg/ml gentamicin sulfate (G418) at 37° C. under 5% CO2 in air. The Hep G2 parental cells were grown under identical conditions in MEM with Earle's salts without G418.
(§2) Hep G2.2.15 cells (190 μl) were seeded onto microtiter plates at a concentration of 20×10^4 cells/ml. The cells incubated overnight in medium without G418 after which the compound compositions (10 μl) were added. Five 2-fold serial dilutions of extracts or fractions were tested starting at 200 μg/ml final culture concentration. PBS and 3TC (lamivudine) were included as the negative and positive controls, respectively. The treated cells were incubated at 37° C. for 4 days, after which the hepatitis B surface antigen (HBsAg) production in culture supernatants was assayed. The HBsAg released into the culture medium in the presence or absence of test samples was assayed using the BIO-RAD Genetic Systems HBsAg EIA 3.0 kit (Bio-Rad, Redmond, Wash.). This enzyme immunoassay is based on the capture of HBsAg on monoclonal antibody-coated plates. Four- and twelve-fold dilutions of all culture supernatants collected were assayed in triplicate wells of the EIA plate. The percentage inhibition of HBsAg secretion in the presence of the plant samples was calculated against the negative control (PBS).

HBsAg = assay: Anti-HBSAg Assay (Procedure B), HBsAg; assay type: cell-based, hepatitis B virus
Procedure: The HBV-producing human hepatoblastoma cell line, Hep G2 2.2.15 is maintained in DMEM supplemented with 10% fetal bovine serum (FBS), 2 mM glutamine, 100 units/ml penicillin, 100 μg/ml streptomycin at 37° C. under 5% CO2 in air.
Samples were dissolved in DMSO at the concentration of 20 mg/mL, then further diluted with DMEM medium to the appropriate concentration.
Hep G2 2.2.15 cells (120 μl) were seeded onto 96-well plates at a concentration of 2×10^5 cells/mL. The cells incubated for 72 h in the medium without G418, after which the test samples (120 μl) were added. Five 3-fold serial dilutions of samples were tested. PBS and 3TC (lamivudine) were included as the negative and positive controls, respectively. The treated cells were incubated at 37° C. for 9 days; with the medium with sample being changed each 3 days, after which the culture supernatant was removed for analysis of both the hepatitis B surface antigen (HBsAg) production and hepatitis B DNA expression.
The HBsAg released into the culture medium in the presence or absence of test material was assayed using the kit manufactured by Shanghai Siic Kehua Biotech Co., Ltd (Shanghai, China). This enzyme immunoassay is based on the capture of HBsAg on monoclonal antibody-coated plates. Four- and twelve-fold dilutions of all culture supernatants collected were assayed in triplicate wells of the kit plate. The percentage inhibition of HBsAg secretion in the presence of the compound was calculated against the negative control (PBS). The IC50 values, the dose that inhibited viruses by 50%, were calculated using non-linear regression analysis (percent survival versus concentration).

HBeAg = assay: Anti-HBSAg Assay (Procedure B), HBeAg; assay type: cell-based, hepatitis B virus
HBV DNA = assay: Anti-HBV DNA Assay; assay type: cell-based, hepatitis B virus; settings: for HBV DNA copies/ml: replicates, listed as HP-S1
HCV/HIV pseudovirions = assay: microbe, parasite or virus in culture; assay type: cell-based, hepatitis C virus; settings: FIG. 1
Hep G2.2.15 cells = assay: % Cell Viability in Anti-HBSAg Assay (Procedure A); assay type: cell-based, human; settings: 50 μg/ml
Procedure: as §1, §2

## COc1cc2c(c(OC)c1OC)-c1ccc(OC)c(=O)cc1[C@@H](NC(C)=O)CC2 [Colchicine, colchicine]
HCV; advanced liver disease
  effect on disease progression (in words): does not slow the disease progression

## COC(=O)C1=CO[C@@H](O[C@@H]2O[C@H](CO)[C@@H](O)[C@H](O)[C@H]2O)[C@H]2[C@@H]1[C@H](O)[C@H](O)[C@]2(C)O [lamiridoside]
[1]
  % Control HBSAg: 96%
  % Inhibition: 4%
HBsAg; 12.5 μg/mL
  HBsAg Ave.: 1.262
  HBsAg Inhibition %: 0%
  HBsAg OD1: 1.305
  HBsAg OD2: 1.149
  HBsAg OD3: 1.331
HBsAg; 25 μg/mL
  HBsAg Ave.: 1.474
  HBsAg Inhibition %: 0%
  HBsAg OD1: 1.604
  HBsAg OD2: 1.418
  HBsAg OD3: 1.401
HBsAg; 50 μg/mL
  HBsAg Ave.: 1.473
  HBsAg Inhibition %: 0%
  HBsAg OD1: 1.659
  HBsAg OD2: 1.504
  HBsAg OD3: 1.255
HBsAg; 100 μg/mL
  HBsAg Ave.: 1.507
  HBsAg Inhibition %: 0%
  HBsAg OD1: 1.584
  HBsAg OD2: 1.469
  HBsAg OD3: 1.468
HBsAg; 200 μg/mL
  HBsAg Ave.: 1.527
  HBsAg Inhibition %: 0%
  HBsAg OD1: 1.546
  HBsAg OD2: 1.504
  HBsAg OD3: 1.531
HBsAg; Tables 1-2
  anti-HBSAg activity (in words): inactive
HBeAg; 12.5 μg/mL
  HBeAg Ave: 1.369
  HBeAg Inhibition %: 0%
  HBeAg OD1: 1.509
  HBeAg OD2: 1.254
  HBeAg OD3: 1.345
HBeAg; 25 μg/mL
  HBeAg Ave: 1.512
  HBeAg Inhibition %: 0%
  HBeAg OD1: 1.558
  HBeAg OD2: 1.488
  HBeAg OD3: 1.49
HBeAg; 50 μg/mL
  HBeAg Ave: 1.642
  HBeAg Inhibition %: 0%
  HBeAg OD1: 1.774
  HBeAg OD2: 1.669
  HBeAg OD3: 1.482
HBeAg; 100 μg/mL
  HBeAg Ave: 1.558
  HBeAg Inhibition %: 0%
  HBeAg OD1: 1.607
  HBeAg OD2: 1.502
  HBeAg OD3: 1.565
HBeAg; 200 μg/mL
  HBeAg Ave: 1.450
  HBeAg Inhibition %: 0%
  HBeAg OD1: 1.095
  HBeAg OD2: 1.634
  HBeAg OD3: 1.621
HBV DNA; 12.5 μg/ml
  HBV DNA Average: 1.18 × 10^6 copies/ml
  HBV DNA Inhibit: 0.00%
  HBV DNA copies/ml: 1.32E+06 copies/ml and 9.64E+05 copies/ml and 1.26E+06 copies/ml
HBV DNA; 25 μg/ml
  HBV DNA Average: 1.64 × 10^6 copies/ml
  HBV DNA Inhibit: 0.00%
  HBV DNA copies/ml: 1.95E+06 copies/ml and 1.30E+06 copies/ml and 1.67E+06 copies/ml
HBV DNA; 50 μg/ml
  HBV DNA Average: 1.16 × 10^6 copies/ml
  HBV DNA Inhibit: 0.85%
  HBV DNA copies/ml: 1.26E+06 copies/ml and 1.14E+06 copies/ml and 1.07E+06 copies/ml
HBV DNA; 100 μg/ml
  HBV DNA Average: 1.02 × 10^6 copies/ml
  HBV DNA Inhibit: 12.80%
  HBV DNA copies/ml: 7.78E+05 copies/ml and 7.93E+05 copies/ml and 1.50E+06 copies/ml
HBV DNA; 200 μg/ml
  HBV DNA Average: 8.40 × 10^5 copies/ml
  HBV DNA Inhibit: 28.20%
  HBV DNA copies/ml: 1.17E+06 copies/ml and 5.77E+05 copies/ml and 7.74E+05 copies/ml
HBV DNA; Table 3
  Anti-HBV DNA activity (in words): inactive
HCV/HIV pseudovirions; 100 μg/mL
  inhibition of HCV/HIV entry: inactive
HCV/HIV pseudovirions
  anti-hepatitis C virus activity (in words): inactive
Hep G2.2.15 cells
  % Cell Viability: 100%

## alpha-interferon
HCV; chronic hepatitis C patients
  patients with a pronounced effect in reducing HCV to a very low level in the blood: about 25%
